Laboratory results reported in ChEMBL document CHEMBL1157539, “Thousands of chemical starting points for antimalarial lead identification” (Nature, 2010).

Tested on: Plasmodium falciparum
Assay: GSK_TCMDC: Inhibition of Plasmodium falciparum 3D7 in whole erythrocytes, using parasite LDH activity as an index of growth.
Type: functional, organism-based
Conditions: Plasmodium falciparum, 3D7

Compound	XC50 [nM]
O=C(/C=C/c1cc([N+](=O)[O-])ccc1Cl)N1CCC(CCN2CCC(c3c[nH]c4ccccc34)CC2)CC1	742
Cn1ccc2c3c(N)nc(N)nc3ccc21	902
CC(C)N1CCC(N(Cc2ccc(-c3ccc(C(F)(F)F)cc3)cc2)C(=O)Cn2c(SCc3cccc(F)c3F)cc(=O)c3ccccc32)CC1	817
COc1ccc2nc(C)cc(Nc3ccc(Oc4ccc5ccccc5c4)c(Cl)c3)c2c1	691
COc1ccc(-c2cncc3ccc(C(=O)NCCCn4ccnc4)nc23)cc1	748
O=C(NCCCCN1CC=C(c2ccc3c(c2OCc2ccccc2)CCCC3)CC1)c1ccc(-c2ccc(C(F)(F)F)cc2)cc1	296
COc1ccc(CNC2CCN(C)CC2)cc1-c1ccc(S(=O)(=O)NC2CCC2)c(C)c1	993
O=C(Nc1ccc(F)c(F)c1)c1ccc(CN2CCCN(Cc3cccc(F)c3)CC2)cc1	1120
CN1CCN(CC(O)CNC(=O)Nc2ccc(Cl)cc2)CC1 (stereo not drawn)	230
CN(C)c1ccc(CN2CCCC(CNC(=O)c3ccc(-c4cccc(C(F)(F)F)c4)s3)C2)cc1 (stereo not drawn)	1200
COc1cc(Nc2nccc(-c3c(-c4cccc(NC(=O)c5c(F)cccc5F)c4)nn4ncccc34)n2)cc(OC)c1OC	32.6
O=C(NCCNc1ccnc(Nc2ccc(F)cc2)n1)Nc1ccccc1F	762
COc1ccc2ncc(C#N)c(CCN3CCC(NCc4cnc5c(c4)OCCO5)CC3)c2n1	595
CSc1cccc(NC(=O)Nc2ccc(I)c(OCCN(C)C)c2)c1	691
Cc1cc(N[C@@H](Cc2ccccc2)C(=O)NCCOc2ccccc2)nc(NCC2CCCCC2)n1	854
Cc1cc(-c2cccc(CNC3CCN(C)CC3)c2)ccc1S(=O)(=O)NCCN1CCCC1	977
Cc1ccc2sc(N3CCN(C(=O)c4ccc([N+](=O)[O-])o4)CC3)nc2c1C	945
CC1CN(c2cnn(C/C=C/c3ccc(NC(=O)c4ccc([N+](=O)[O-])cc4)cc3)c(=O)c2Cl)CC(C)N1 (stereo not drawn)	700
COCCn1ccc2c3c(N)nc(N)nc3ccc21	214
COc1ccc(CNC2CCN(C)CC2)cc1-c1ccc(OC)c(S(=O)(=O)NCc2ccccc2)c1	951
O=C(COc1ccc(C(=O)c2ccccc2)cc1)Nc1nccs1	887
CCOC(=O)C1CCN(CCOc2cc(NC(=O)/C=C/c3ccccc3Cl)ccc2Br)CC1	991
COc1ccc2nccc([C@@H](O)CN3CCC(NC(=O)C(c4cc5ccccc5o4)N4CCN(C(c5ccccc5)c5ccccc5)CC4)CC3)c2c1 (stereo partly drawn)	149
COc1ccccc1CCNc1ncc(F)c(N[C@@H](Cc2ccccc2)C(=O)NCCc2ccccc2)n1	965
C=CCOC(=O)N1CCC(CNCc2cccc(-c3ccc(-c4nc5cc(C(F)(F)F)ccc5[nH]4)cc3)c2)C1 (stereo not drawn)	146

Compound	XC50 [nM]
COc1ccc(-c2ccc(NC(=O)c3ccc(Cl)cc3)cc2)cc1CN1CCN(C)CC1	823
O=C(NC1CCC(CCN2Cc3ccc(Br)cc3C2)CC1)c1cccc(-c2cccnc2)c1 (stereo not drawn)	927
CCOc1c(CNCCCNc2nc3ccccc3[nH]2)cc(Br)cc1OC	557
CNC(=O)c1cc(S(=O)(=O)N2CCN(c3ccccn3)CC2)cs1	669
CCCC(=O)c1c(O)c2ccccc2oc1=O	265
O=C(NCCCCN1CCC(c2ccc3c(c2O)CCCC3)CC1)c1ccc(-c2ccc(Cl)cc2)cc1	754
COc1ccc(-c2nc3ccc(C)nc3nc2-c2ccc(OC)cc2)cc1	1110
O=[N+]([O-])c1ccc(C=NNc2nc3ccccc3[nH]2)cc1	283
Clc1ccc(-c2ccc(CNCCCN3CCCC3)cc2)cc1	1060
CCOc1c(Br)cc(Cl)cc1CNCCCNc1nc2ccccc2[nH]1	689
Oc1cccc(Nc2nc(NCc3ccco3)c3ccccc3n2)c1	415
CCCNS(=O)(=O)c1ccc(NC(=O)C(C)Oc2ccc([N+](=O)[O-])cc2)cc1 (stereo not drawn)	719
COc1ccc2nccc(NC(=O)N3CCC(NCc4cc5c(F)ccc(F)c5[nH]4)CC3)c2n1	221
CC(=NNC(=N)N)c1ccc2c(c1)Cc1ccccc1-2	1410
O=C(NCc1ccccc1)Nc1cccc(-c2cccc(-c3nc4cc(C(F)(F)F)ccc4[nH]3)c2)c1	264
Cc1noc(C)c1-c1ccc2c(Nc3ccc(C(F)(F)F)cc3)c(C(N)=O)cnc2c1	319
Cc1ccc(NC(=O)N2CCN(CCCCCNC(=O)/C=C/c3ccc(Cl)c(Cl)c3)CC2)cc1C	1100
Cc1ccc2c(=NN=Cc3cccc(Cl)c3)cc(C)[nH]c2c1	949
CN1CCN(Cc2cc3cc(NC(=O)/C=C/c4ccc(Cl)cc4)ccc3s2)CC1	767
COc1cc2nc(C)nc(Nc3ccc4c(ccn4Cc4ccccc4)c3)c2cc1OC	556
CCNc1cc(C)nc(Nc2ccccc2)n1	883
COc1ccc(C(=O)N[C@@H](CC(C)C)C(=O)N[C@H](/C=N/NC(=O)c2ccccc2)CCc2ccccc2)cc1OCCN1CCOCC1	173
CC(O)C1CCCCN1C(=O)c1cccc(-c2cccc(-c3nc4cc(C(F)(F)F)ccc4[nH]3)c2)c1 (stereo not drawn)	280
N=C(NCCCCCCCCNC(=N)Nc1ccc(Cl)cc1)Nc1ccc(Cl)cc1	590
CCn1c(-c2nc(-c3ccc4c(c3)OCO4)cnc2N)nc2cnccc21	429

Compound	XC50 [nM]
O=C(NC1CC1)c1ccc(N2CCCC(COc3ccc4c(c3)CCCC4)C2)nc1 (stereo not drawn)	1080
CCOC(=O)/C(=N\OC(C)(C)C(=O)NCc1ccc(O)c(O)c1)c1csc(NC(c2ccccc2)(c2ccccc2)c2ccccc2)n1	170
CC(C)CN1C(=O)c2ccccc2C(C(=O)Nc2cccc(C#N)c2)C1c1cccs1 (stereo not drawn)	159
COc1ccc(NC(=O)Nc2cccc(-c3ccncc3)c2)cc1N1CCN(C)CC1	552
N#Cc1ccc2c(c1)CCN(CCC1CCC(NC(=O)/C=C/c3ccc4[nH]ccc4c3)CC1)CC2 (stereo not drawn)	1060
COc1ccc2cc(C(=O)Nc3ccc4c(c3)CCN(C3CCC3)CC4)ccc2c1	838
Cc1[nH]c(C)c(-c2ccc(OCc3cccc(C(F)(F)F)c3)nc2)c(=O)c1Br	40.3
O=C(c1cccc(-c2cccc(-c3nc4ccccc4[nH]3)c2)c1)N1CCCCC1CN1CCC(O)C1 (stereo not drawn)	728
CCOC(=O)C1=C(C)NC2=C(C(=O)CC(C)(C)C2)C1c1ccc(Br)cc1 (stereo not drawn)	1160
CCC(CCON1C(N)=NC(N)=NC1(C)C)c1ccc(Cl)c(Cl)c1 (stereo not drawn)	3.2
COc1cccc(O)c1CNCC(O)c1cccc(C(F)(F)F)c1 (stereo not drawn)	945
CCN(CC)CC(O)CNc1c2ccc([N+](=O)[O-])cc2nc2cc(OC)c(OC)cc12 (stereo not drawn)	266
O=c1ccc2ccc(F)c3c2n1CC3CN1CCC(NCc2cccc(-c3ccccc3F)c2)CC1 (stereo not drawn)	1100
O=C(NCC1CCCCC1)c1cc(=O)c2ccccc2o1	320
O=C(Nc1ccc(OC2CCN(Cc3ccco3)CC2)c(Cl)c1)c1ccc2ncccc2c1	949
Cc1cc(-c2ccc(CNC3CCN(C)CC3)cc2)ccc1S(=O)(=O)NCc1ccccc1	851
Cc1c(-c2cccc(C(C)(C)NC3CCN(Cc4ccccc4)CC3)c2)cnc(N)c1C	579
CC1(C)NC(N)=NC(=N)N1OCCCOc1cc(Cl)cc(Cl)c1	3.2
Cc1cc(NCCC(=O)NCCOc2ccccc2)nc(Nc2ccccc2)n1	1060
CCOC(=O)c1ccc(N=C2SC(=Cc3cc(Br)ccc3O)C(=O)N2C)cc1	998
O=C(NCC1CC1)C1Cc2c([nH]c3ccc(Br)cc23)C2(CCN(CCc3ccccc3)CC2)N1 (stereo not drawn)	908
Cc1c2c(nn1-c1ccccc1)C(c1ccccc1)N(c1ccccc1)C2=O (stereo not drawn)	147
COc1ccc(C2CCN(CCCCNC(=O)c3ccc(NC(=O)c4ccc(Cl)cc4)cc3)CC2)c(C)c1	747
CNCCNCc1ccc(-c2cccc(-c3nc4cc(F)ccc4[nH]3)c2)cc1	1130
CC1CN(Cc2ccc(-c3cccc(-c4nc5cc(F)ccc5[nH]4)c3)cc2)CC(C)O1 (stereo not drawn)	917

Compound	XC50 [nM]
N=C(N)NC(=O)Nc1cc(F)c(Cl)c(Br)c1	993
Cc1cc(N[C@@H](Cc2ccccc2)C(=O)NCCOc2ccccc2)nc(NCCc2ccccn2)n1	1520
CCOC(=O)/C(=N\OC(C(=O)OC(C)(C)C)c1ccccc1)c1csc(NC(c2ccccc2)(c2ccccc2)c2ccccc2)n1 (stereo not drawn)	1110
CCOc1cc(C)ccc1C1CCN(CCCCNC(=O)c2ccc(-c3ccc(C(F)(F)F)cn3)cc2)CC1	787
O=C(CSc1nc2ccc([N+](=O)[O-])cc2s1)Nc1ccccc1-c1ccccc1	1170
COc1ccc(C=Cc2ccc(-c3c(C)[nH]c(C)c(Cl)c3=O)cc2)cc1OC	283
CCCN(C(=O)c1ccccc1C)c1nnc(-c2cccc(C)c2)s1	896
CC(C)(C)CCN1CCC(NC(=O)c2ccc(-c3cccc(C(F)(F)F)c3)s2)CC1	755
CCc1cn2c3c(cc(C(=O)N[C@@H](Cc4cccc(Cl)c4)[C@H](O)CNC4CCCCC4)cc13)N(C)S(=O)(=O)CC2	57.1
COC(=O)c1ccc2nc(-c3ccc(C(=O)NC4CCN(Cc5ccccc5)CC4)s3)[nH]c2c1	688
O=C(/C=C/c1ccc(Cl)c(Cl)c1)N1CCC(CN2CCC(c3nc4ccccc4n3CCCO)CC2)CC1	839
CCOC(=O)c1cccc(NC(=N)Nc2nc(C)cc(NCCc3ccccc3)n2)c1	684
O=C(Nc1ccc(Cl)cc1)Nc1ccc(Cn2ncc(N3CCCNCC3)c(Cl)c2=O)cc1	783
CC(C)C[C@H](NC(=O)c1cccc(F)c1)C(=O)N[C@H](/C=N/NC(=O)c1ccccc1)CCc1ccccc1	715
O=C(Nc1cccc(C(F)(F)F)c1)N1CCOC(CCN2CCC(c3ccccc3)CC2)(c2ccc(Cl)c(Cl)c2)C1 (stereo not drawn)	1110
CC(CCc1ccccc1)NCC(O)c1ccc2c3c(cccc13)S(=O)(=O)N2C (stereo not drawn)	627
C=CCN1C(=O)c2[nH]nc(-c3cc(C)c(C)cc3O)c2C1c1cccc(Br)c1 (stereo not drawn)	1160
OC[C@H]1CCCN1CC#Cc1cc2c(Nc3ccc(OCc4cccc(F)c4)c(Cl)c3)ncnc2s1	1210
CS(=O)(=O)c1cccc(-c2cnc(N)c3cc(-c4cccc(F)c4)ccc23)c1	860
CCOc1ccccc1C(=O)N1CCc2cc3nccc(N4CCN5CCC[C@H]5C4)c3cc21	753
COc1cc2nc(N3CCC(CNC(=O)c4cccc5cccnc45)CC3)nc(N)c2cc1OC	1700
c1cncc(CCNCc2ccc(-c3cccc(-c4nc5ccccc5[nH]4)c3)cc2)c1	164
Cc1ccc(-c2cc3nc4c(c(NCCCn5ccnc5)n3n2)CCC4)cc1	925
